In patent publication US12173026B2, “PRMT5 inhibitors” (Merck Sharp & Dohme LLC, priority 2018, dated 2024):
Where a name gives a salt, the structure may show the parent alone.

system: symmetric dimethylation of arginine (SDMA) of PRMT5 substrates in MCF-7 cells; experiment: PRMT5 Cell Target Engagement (TE) Assay; type: cell-based; conditions: Homo sapiens, MCF7, 72 h; MCF-7 cells treated for 3 days; nuclear SDMA by high content imaging; top concentration 10000 nM
Procedure, shortened: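 MCF-7 cells treated 3 days at 37 °C with 10-point 1:3 titration from 10000 nM top. Fixed cells stained with anti-SDMA antibody plus Alexa488 secondary and Hoechst; nuclear fluorescence quantified by high-content imaging versus DMSO wells. EC50 from 4-parameter fit of percent fluorescence vs log concentration.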

| Compound | EC50 |
| --- | --- |
| Nc1nc2nc(C[C@@H]3CC[C@@]4(O)[C@@H]3O[C@@H](n3ccc5c(N)ncnc53)[C@@H]4O)ccc2cc1Cl [Example 28, (2R,3R,3aS,6S,6aR)-6-(7-amino-6-chloro-1,8-naphthyridin-2-yl)methyl)-2-(4-amino-7H-pyrrolo[2,3-d]pyrimidin-7-yl)hexahydro-3aH-cyclopenta[b]furan-3,3a-diol trihydrochloride] | 13 nM |
| Cc1nc(N)nc2c1ccn2[C@@H]1O[C@@H]2[C@H](Cc3ccc4cc(Br)c(N)nc4c3)CC[C@]2(O)[C@H]1O [Example 127, (2R,3R,3aS,6S,6aR)-6-((2-amino-3-bromoquinolin-7-yl)methyl)-2-(2-amino-4-methyl-7-pyrrolo[2,3-d]pyrimidin-7-yl)hexahydro-3aH-cyclopenta[b]furan-3,3a-diol] | 0.8 nM |
| CC(C)c1ncnc2c1ccn2[C@@H]1O[C@@H]2[C@H](Cc3ccc4cc(Br)c(N)nc4c3)CC[C@]2(O)[C@H]1O [Example 83, (2R,3R,3aS,6S,6aR)-6-((2-amino-3-bromoquinolin-7-yl)methyl)-2-(4-isopropyl-7H-pyrrolo[2,3-d]pyrimidin-7-yl)hexahydro-3aH-cyclopenta[b]furan-3,3a-diol] | 41.1 nM |
| CC(C)(O)c1ncnc2c1ccn2[C@@H]1O[C@@H]2[C@@H](Oc3ccc4cc(Br)c(N)nc4c3)CC[C@]2(O)[C@H]1O [Example 78, (2R,3R,3aS,6S,6aR)-6-1(2-amino-3-bromoquinolin-7-yl)oxyl-2-[4-(2-hydroxypropan-2-yl)-7H-pyrrolo[2,3-d]pyrimidin-7-yl]hexahydro-3aH-cyclcopenta[b]furan-3,3a-diol] | 5990 nM |
| Nc1nc2cc(C[C@@H]3CC[C@@]4(O)[C@@H]3O[C@@H](n3ccc5c(N)ncnc53)[C@@H]4O)ccc2cc1Cl [Example 67, (2R,3R,3aS,6S,6aR)-6-((2-amino-3-chloroquinolin-7-yl)methyl)-2-(4-amino-7H-pyrrolo[2,3-d]pyrimidin-7-yl)hexahydro-3aH-cyclopenta[b]furan-3,3a-diol] | 1.2 nM |
| CNc1ncnc2c1ccn2[C@@H]1O[C@@H]2[C@@H](Oc3ccc4cc(Br)c(N)nc4c3)CC[C@]2(O)[C@H]1O [Example 94, (2R,3R,3aS,6S,6aR)-6-((2-amino-3-bromoquinolin-7-yl)oxy)-2-(4-(methylamino)-7H-pyrrolo[2,3-d]pyrimidin-7-yl)hexahydro-3aH-cyclopenta[b]furan-3,3a-diol] | 5.3 nM |
| CNc1ncnc2c1ccn2[C@@H]1O[C@@H]2[C@H](Cc3ccc4cc(F)c(N)nc4c3)CC[C@]2(O)[C@H]1O [Example 95, (2R,3R,3aS,6S,6aR)-6-((2-amino-3-fluoroquinolin-7-yl)methyl)-2-(4-(methylamino)-7H-pyrrolo[2,3-d]pyrimidin-7-yl)hexahydro-3aH-cyclopenta[b]furan-3,3a-diol] | 47 nM |
| Nc1nc2cc(C[C@@H]3CC[C@@]4(O)[C@@H]3O[C@@H](n3cc(C(F)F)c5c(N)ncnc53)[C@@H]4O)ccc2cc1F [Example 51, (2R,3R,3aS,6S,6aR)-2-[4-amino-5-(difluoromethyl)-7H-pyrrolo[2,3-d]pyrimidin-7-yl]-6-[(2-amino-3-fluoroquinolin-7-yl)methyl]hexahydro-3aH-cyclopenta[b]furan-3,3a-diol] | 2.8 nM |
| COc1ncnc2c1ccn2[C@@H]1O[C@](C)(COc2ccc3cc(Br)c(N)nc3c2)[C@@H](O)[C@H]1O [Example 12, (2R,3S,4R,5R)-2-(((2-amino-3-bromoquinolin-7-yl)oxy)methyl)-5-(4-methoxy-7H-pyrrolo[2,3-d]pyrimidin-7-yl)-2-methyltetrahydrofuran-3,4-diol] | 10000 nM |
| Cc1ncnc2c1ccn2[C@@H]1O[C@@H]2[C@H](Cc3ccc4cc(Cl)c(N)nc4c3F)CC[C@]2(O)[C@H]1O [Example 22, (2R,3R,3aS,6S,6aR)-6-[(2-amino-3-chloro-8-fluoroquinolin-7-yl)methyl]-2-(4-methyl-7H-pyrrolo[2,3-d]pyrimidin-7-yl)hexahydro-3aH-cyclopenta[b]furan-3,3a-diol] | 30 nM |
| Nc1nc2cc(C[C@@H]3CC[C@@]4(O)[C@@H]3C[C@@H](n3cc(F)c5c(N)ncnc53)[C@@H]4O)ccc2cc1F [Example 33, (1S,2R,3aR,4S,6aR)-4-((2-amino-3-fluoroquinolin-7-yl)methyl)-2-(4-amino-5-fluoro-7H-pyrrolo[2,3-d]pyrimidin-7-yl)hexahydropentalene-1,6a(1H)-diol] | 0.4 nM |
| C[C@]1(COc2ccc3cc(Br)c(N)nc3c2)O[C@@H](n2ccc3c(N)ncnc32)[C@H](O)[C@@H]1O [Example 13, (2R,3S,4R,5R)-2-(((2-amino-3-bromoquinolin-7-yl)oxy)methyl)-5-(4-amino-7H-pyrrolo[2,3-d]pyrimidin-7-yl)-2-methyltetrahydrofuran-3,4-diol] | 14 nM |
| Cc1ncnc2c1ccn2[C@@H]1O[C@@H]2[C@H](Cc3cnc4cc(F)c(N)nc4c3)CC[C@]2(O)[C@H]1O [Example 25, (2R,3R,3aS,6S,6aR)-6-((6-amino-7-fluoro-1,5-naphthyridin-3-yl)methyl)-2-(4-methyl-7H-pyrrolo[2,3-d]pyrimidin-7-yl)hexahydro-3aH-cyclopenta[b]furan-3,3a-diol, 3HCl] | 258 nM |
| Nc1nc2cc(O[C@H]3CC[C@@]4(O)[C@@H]3C[C@@H](n3ccc5c(N)ncnc53)[C@@H]4O)ccc2cc1Br [Example 119, (1S,2R,3aR,4S,6aR)-4-((2-amino-3-bromoquinolin-7-yl)oxy)-2-(4-amino-7H-pyrrolo[2,3-d]pyrimidin-7-yl)hexahydropentalene-1,6a(1H)-diol 2,2,2-trifluoroacetate] | 180 nM |
| C#C[C@@]1(O)[C@@H](COc2ccc3cc(Br)c(N)nc3c2)O[C@@H](n2ccc3c(N)ncnc32)[C@@H]1O [Example 3, (2R,3S,4R,5R)-2-(((2-amino-3-bromoquinolin-7-yl)oxy)methyl)-5-(4-amino-7H-pyrrolo[2,3-d]pyrimidin-7-yl)-3-ethynyltetrahydrofuran-3,4-diol] | 20 nM |
| Cc1ncnc2c1ccn2[C@@H]1O[C@@H]2[C@H](Cc3ccc4cc(Br)c(N)nc4c3)OC[C@]2(O)[C@H]1O [Example 133] | 2.7 nM |
| Cc1cn([C@@H]2O[C@@H]3[C@H](Cc4ccc5cc(Br)c(N)nc5c4)OC[C@]3(O)[C@H]2O)c2ncnc(N)c12 [Example 135, (2R,3R,3aS,6S,6aR)-6-((2-amino-3-bromoquinolin-7-yl)methyl)-2-(4-amino-5-methyl-7H-pyrrolo[2,3-d]pyrimidin-7-yl)tetrahydrofuro[3,4-b]furan-3,3a(4H)-diol] | 0.6 nM |
| CNc1ncnc2c1ccn2[C@@H]1O[C@@H]2[C@H](Cc3ccc4cc(Br)c(N)nc4c3)CC[C@]2(O)[C@H]1O [Example 92] | 9.9 nM |
| Cc1ncnc2c1ccn2[C@@H]1C[C@](C)(CCc2ccc3cc(Br)c(N)nc3c2)[C@@H](O)[C@H]1O [Example 109, (1S,2R,3S,5R)-3-(2-(2-amino-3-bromoquinolin-7-yl)ethyl)-3-methyl-5-(4-methyl-7H-pyrrolo[2,3-d]pyrimidin-7-yl)cyclopentane-1,2-diol] | 5.9 nM |
| C[C@@]1(O)[C@@H](COc2ccc3cccnc3c2)O[C@@H](n2ccc3c(N)ncnc32)[C@@H]1O [Example 99, (2R,3S,4R,5R)-5-(4-amino-7H-pyrrolo[2,3-d]pyrimidin-7-yl)-3-methyl-2-((quinolin-7-yloxy)methyl)tetrahydrofuran-3,4-diol] | 202 nM |
| C[C@@]1(O)[C@@H](COc2ccc3cc(Br)c(N)nc3c2)C[C@@H](n2ccc3c(N)ncnc32)[C@@H]1O [Example 2] | 0.7 nM |
| Cc1ncnc2c1ccn2[C@@H]1O[C@@H]2[C@@H](Oc3ccc4cc(Br)c(N)nc4c3)CC[C@]2(O)[C@H]1O [Example 7, (2R,3R,3aS,6S,6aR)-6-((2-amino-3-bromoquinolin-7-yl)oxy)-2-(4-methyl-7H-pyrrolo[2,3-d]pyrimidin-7-yl)hexahydro-2H-cyclopenta[b]furan-3,3a-diol] | 4.8 nM |
| C[C@@]1(O)[C@@H](COc2ccc3cc(Br)c(N)nc3c2)O[C@@H](n2ccc3c(Cl)ncnc32)[C@@H]1O [Example 11, (2R,3S,4R,5R)-2-{[(2-amino-3-bromoquinolin-7-yl)oxy]methyl}-5-(4-chloro-7H-pyrrolo[2,3-d]pyrimidin-7-yl)-3-methyltetrahydrofuran-3,4-diol] | 131 nM |
| C[C@]1(COc2ccc3cc(Br)c(N)nc3c2)C[C@@H](n2ccc3c(N)ncnc32)[C@H](O)[C@@H]1O [Example 100, (1S,2R,3R,5R)-3-(((2-amino-3-bromoquinolin-7-yl)oxy)methyl)-5-(4-amino-7H-pyrrolo[2,3-d]pyrimidin-7-yl)-3-methylcyclopentane-1,2-diol] | 7.4 nM |
| C[C@]1(COc2ccc3ccc(N)nc3c2)C[C@@H](n2ccc3c(N)ncnc32)[C@H](O)[C@@H]1O [Example 101, (1S,2R,3R,5R)-5-(4-amino-7H-pyrrolo[2,3-d]pyrimidin-7-yl)-3-(((2-aminoquinolin-7-yl)oxy)methyl)-3-methylcyclopentane-1,2-diol] | 1 nM |
| C[C@]1(CCc2ccc3cc(Br)c(N)nc3c2)C[C@@H](n2ccc3c(N)ncnc32)[C@H](O)[C@@H]1O [Example 15, (1S,2R,3S,5R)-3-[2-(2-amino-3-bromo-7-quinolinyl)ethyl]-5-(4-amino-7H-pyrrolo[2,3-d]pyrimidin-7-yl)-3-methyl-1,2-cyclopentanediol] | 0.5 nM |
| Nc1ncc2c(F)cn([C@@H]3O[C@@H]4[C@@H](Oc5ccc6cc(Br)c(N)nc6c5)CC[C@]4(O)[C@H]3O)c2n1 [Example 130, (2R,3R,3aS,6S,6aR)-6-((2-amino-3-bromoquinolin-7-yl)oxy)-2-(2-amino-5-fluoro-7H-pyrrolo[2,3-d]pyrimidin-7-yl)hexahydro-3aH-cyclopenta[b]furan-3,3a-diol] | 135 nM |
